Where “and” joins values, the source holds several entries; their conditions need not be identical. Identical values can stand only once.
Test system: Swiss mice, Sarcoma 180 sc, mean tumor weight T/C
Assay: NCI In Vivo Anticancer Drug Screen. Data for tumor model Sarcoma 180 (subcutaneous) in Swiss mice
Conditions: endpoint: mean tumor weight, higher = larger tumour
In short: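 Mice bearing transplanted tumors were treated with compound, and survival or tumor size was measured. Values are expressed as the treated-group measurement (T) divided by the vehicle-treated control measurement (C).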

[1] = dose: 50.0 mg/kg/injection, schedule: Q01DX007 (ip), vehicle: carboxymethylcellulose (CMC)
[2] = dose: 250.0 mg/kg/injection, schedule: Q01DX007 (ip), vehicle: other
[3] = dose: 125.0 mg/kg/injection, schedule: Q01DX007 (ip), vehicle: carboxymethylcellulose (CMC)
[4] = dose: 250.0 mg/kg/injection, schedule: Q01DX007 (ip), vehicle: carboxymethylcellulose (CMC)
[5] = dose: 100.0 mg/kg/injection, schedule: Q01DX007 (ip), vehicle: carboxymethylcellulose (CMC)

CO/[N+]([O-])=C\C(=O)N/C=C/C(=O)O
T/C [1]: 79 % of control

CC(=O)Nc1c(Cl)c(Cl)c2c(c1Cl)Cc1cc(Cl)c(Cl)cc1-2
T/C (dose: 3.1 mg/kg/injection, schedule: Q01DX007 (ip), vehicle: carboxymethylcellulose (CMC)): 35 % of control
T/C (dose: 6.2 mg/kg/injection, schedule: Q01DX007 (ip), vehicle: carboxymethylcellulose (CMC)): 52 % of control
T/C (dose: 12.5 mg/kg/injection, schedule: Q01DX007 (ip), vehicle: carboxymethylcellulose (CMC)): 48 % of control and 54 % of control
T/C (dose: 21.0 mg/kg/injection, schedule: Q01DX007 (ip), vehicle: other): 63 % of control
T/C (dose: 32.0 mg/kg/injection, schedule: Q01DX007 (ip), vehicle: other): 39 % of control
T/C (dose: 33.0 mg/kg/injection, schedule: Q01DX007 (ip), vehicle: other): 49 % of control
T/C (dose: 48.0 mg/kg/injection, schedule: Q01DX007 (ip), vehicle: other): 77 % of control
T/C (dose: 49.0 mg/kg/injection, schedule: Q01DX007 (ip), vehicle: other): 40 % of control
T/C (dose: 73.0 mg/kg/injection, schedule: Q01DX007 (ip), vehicle: other): 31 % of control
T/C [2]: 21 % of control and 43 % of control

CC1NC(=O)NC1CCCCCC(=O)O (stereo unspecified)
T/C [3]: 103 % of control
T/C [4]: 73 % of control
T/C (dose: 500.0 mg/kg/injection, schedule: Q01DX007 (ip), vehicle: carboxymethylcellulose (CMC)): 122 % of control
T/C (dose: 1000.0 mg/kg/injection, schedule: Q01DX007 (ip), vehicle: carboxymethylcellulose (CMC)): 105 % of control

CCCCNc1nc(NCCCC)c2nsnc2n1
T/C (dose: 80.0 mg/kg/injection, schedule: Q01DX007 (ip), vehicle: carboxymethylcellulose (CMC)): 46 % of control
T/C [5]: 56 % of control

CC1(c2ccccc2)O[C@@H]2C[C@H]3[C@@H]4CCC5=CC(=O)C=C[C@]5(C)[C@@]4(F)[C@@H](O)C[C@]3(C)[C@]2(C(=O)CO)O1 (stereo partly specified)
T/C (dose: 1.2 mg/kg/injection, schedule: Q01DX007 (sc), vehicle: steriod suspending solution): 72 % of control
T/C (dose: 1.7 mg/kg/injection, schedule: Q#A X014 (sc), vehicle: steriod suspending solution): 70 % of control
T/C (dose: 2.5 mg/kg/injection, schedule: Q01DX007 (sc), vehicle: steriod suspending solution): 70 % of control
T/C (dose: 2.6 mg/kg/injection, schedule: Q#A X014 (sc), vehicle: steriod suspending solution): 32 % of control
T/C (dose: 5.0 mg/kg/injection, schedule: Q01DX007 (sc), vehicle: steriod suspending solution): 52 % of control
T/C (dose: 6.0 mg/kg/injection, schedule: Q01DX007 (sc), vehicle: steriod suspending solution): 63 % of control
T/C (dose: 39.0 mg/kg/injection, schedule: Q01DX007 (sc), vehicle: steriod suspending solution): 28 % of control
T/C (dose: 50.0 mg/kg/injection, schedule: Q01DX007 (sc), vehicle: steriod suspending solution): 14 % of control
T/C (dose: 60.0 mg/kg/injection, schedule: Q01DX007 (sc), vehicle: steriod suspending solution): 33 % of control
T/C (dose: 100.0 mg/kg/injection, schedule: Q01DX007 (sc), vehicle: steriod suspending solution): 7 % of control

Oc1ccccc1C(Nc1nc2ccccc2s1)c1ccc2cccnc2c1O (stereo unspecified)
T/C (dose: 62.0 mg/kg/injection, schedule: Q01DX007 (ip), vehicle: other): 94 % of control
T/C (dose: 125.0 mg/kg/injection, schedule: Q01DX007 (ip), vehicle: other): 97 % of control
T/C [2]: 46 % of control

O=C(Nc1ccc(C2=NCCN2)cc1)c1cccc(C(=O)Nc2ccc(C3=NCCN3)cc2)c1
T/C (dose: 1.2 mg/kg/injection, schedule: Q01DX007 (ip), vehicle: carboxymethylcellulose (CMC)): 167 % of control
T/C (dose: 4.7 mg/kg/injection, schedule: Q01DX007 (ip), vehicle: carboxymethylcellulose (CMC)): 109 % of control
T/C (dose: 9.4 mg/kg/injection, schedule: Q01DX007 (ip), vehicle: carboxymethylcellulose (CMC)): 117 % of control
T/C (dose: 60.0 mg/kg/injection, schedule: Q01DX007 (ip), vehicle: carboxymethylcellulose (CMC)): 163 % of control
T/C (dose: 120.0 mg/kg/injection, schedule: Q01DX007 (ip), vehicle: carboxymethylcellulose (CMC)): 98 % of control
T/C (dose: 240.0 mg/kg/injection, schedule: Q01DX007 (ip), vehicle: carboxymethylcellulose (CMC)): 79 % of control

O=C1CCCCC1C(=O)C(F)(F)F (stereo unspecified)
T/C (dose: 27.75 mg/kg/injection, schedule: Q#A X014 (ip), vehicle: methylcellulose (MC)): 64 % of control
T/C (dose: 27.75 mg/kg/injection, schedule: Q#A X014 (ip), vehicle: saline): 64 % of control
T/C (dose: 41.65 mg/kg/injection, schedule: Q#A X014 (ip), vehicle: methylcellulose (MC)): 79 % of control
T/C (dose: 41.65 mg/kg/injection, schedule: Q#A X014 (ip), vehicle: saline): 81 % of control
T/C (dose: 55.0 mg/kg/injection, schedule: Q01DX007 (ip), vehicle: saline): 61 % of control
T/C (dose: 62.5 mg/kg/injection, schedule: Q#A X014 (ip), vehicle: methylcellulose (MC)): 34 % of control
T/C (dose: 62.5 mg/kg/injection, schedule: Q#A X014 (ip), vehicle: saline): 28 % of control
T/C (dose: 83.0 mg/kg/injection, schedule: Q01DX007 (ip), vehicle: saline): 44 % of control
T/C (dose: 93.75 mg/kg/injection, schedule: Q#A X014 (ip), vehicle: methylcellulose (MC)): 35 % of control and 52 % of control
T/C (dose: 93.75 mg/kg/injection, schedule: Q#A X014 (ip), vehicle: saline): 37 % of control
T/C (dose: 110.0 mg/kg/injection, schedule: Q02DX004 (ip), vehicle: saline): 40 % of control
T/C (dose: 125.0 mg/kg/injection, schedule: Q01DX007 (ip), vehicle: saline): 62 % of control
T/C (dose: 165.0 mg/kg/injection, schedule: Q03DX003 (ip), vehicle: saline): 63 % of control
T/C (dose: 166.0 mg/kg/injection, schedule: Q02DX004 (ip), vehicle: saline): 97 % of control
T/C (dose: 187.0 mg/kg/injection, schedule: Q01DX007 (ip), vehicle: saline): 47 % of control
T/C (dose: 250.0 mg/kg/injection, schedule: Q02DX004 (ip), vehicle: saline): 82 % of control
T/C (dose: 352.0 mg/kg/injection, schedule: Q03DX003 (ip), vehicle: carboxymethylcellulose (CMC)): 83 % of control
T/C (dose: 561.0 mg/kg/injection, schedule: Q03DX003 (ip), vehicle: saline): 53 % of control

CCCCCCCCCCCCCC1=C(O)C(=O)C(CC2=C(O)C(=O)C(CCCCCCCCCCCCC)=C(O)C2=O)=C(O)C1=O
T/C [1]: 66 % of control and 80 % of control
T/C [5]: 73 % of control
T/C (dose: 200.0 mg/kg/injection, schedule: Q01DX007 (ip), vehicle: carboxymethylcellulose (CMC)): 101 % of control

CNNCc1ccc(C(=O)NC(N)=O)cc1
T/C (dose: 100.0 mg/kg/injection, schedule: Q01DX007 (ip), vehicle: saline): 40 % of control
T/C [3]: 38 % of control
T/C (dose: 148.0 mg/kg/injection, schedule: Q01DX007 (ip), vehicle: saline): 42 % of control
T/C (dose: 222.0 mg/kg/injection, schedule: Q01DX007 (ip), vehicle: saline): 18 % of control
T/C [4]: 30 % of control
T/C (dose: 333.0 mg/kg/injection, schedule: Q01DX007 (ip), vehicle: saline): 37 % of control

CC(C)COC(=O)C1(N)CCCC1
T/C (dose: 90.0 mg/kg/injection, schedule: Q01DX007 (ip), vehicle: carboxymethylcellulose (CMC)): 80 % of control
T/C (dose: 135.0 mg/kg/injection, schedule: Q01DX007 (ip), vehicle: carboxymethylcellulose (CMC)): 44 % of control
T/C (dose: 188.0 mg/kg/injection, schedule: Q01DX007 (ip), vehicle: saline): 14 % of control
T/C (dose: 202.0 mg/kg/injection, schedule: Q01DX007 (ip), vehicle: carboxymethylcellulose (CMC)): 49 % of control
T/C (dose: 303.0 mg/kg/injection, schedule: Q01DX007 (ip), vehicle: carboxymethylcellulose (CMC)): 18 % of control

CC(=O)Nc1c(Cl)c(Cl)c2c(c1Cl)Cc1cc(Br)ccc1-2
T/C (dose: 3.0 mg/kg/injection, schedule: Q01DX007 (ip), vehicle: carboxymethylcellulose (CMC)): 75 % of control
T/C (dose: 6.0 mg/kg/injection, schedule: Q01DX007 (ip), vehicle: carboxymethylcellulose (CMC)): 74 % of control
T/C (dose: 6.0 mg/kg/injection, schedule: Q01DX007 (ip), vehicle: other): 38 % of control
T/C (dose: 9.0 mg/kg/injection, schedule: Q01DX007 (ip), vehicle: other): 69 % of control
T/C (dose: 12.0 mg/kg/injection, schedule: Q01DX007 (ip), vehicle: carboxymethylcellulose (CMC)): 45 % of control
T/C (dose: 13.0 mg/kg/injection, schedule: Q01DX007 (ip), vehicle: other): 46 % of control
T/C (dose: 19.0 mg/kg/injection, schedule: Q01DX007 (ip), vehicle: other): 56 % of control
T/C (dose: 25.0 mg/kg/injection, schedule: Q01DX007 (ip), vehicle: carboxymethylcellulose (CMC)): 63 % of control
T/C (dose: 28.0 mg/kg/injection, schedule: Q01DX007 (ip), vehicle: other): 35 % of control
T/C (dose: 41.0 mg/kg/injection, schedule: Q01DX007 (ip), vehicle: other): 62 % of control
T/C [1]: 49 % of control
T/C (dose: 63.0 mg/kg/injection, schedule: Q01DX007 (ip), vehicle: other): 33 % of control
T/C [5]: 30 % of control

From PubChem BioAssay AID342 (DTP/NCI, 2004)
